Reference: patent US10562878B2, “Cycloalkylamines as monoamine reuptake inhibitors” (Sunovion Pharmaceuticals Inc., priority 2006, dated 2020)
Counter-ions that a name gives are not always drawn. Like-named read-outs stand apart in the source and are kept apart here.

What was measured:
[1] = biological target: human serotonin transporter (Homo sapiens (Human), UniProt P31645); assay: Serotonin functional uptake assay, recombinant human transporter in HEK-293 cells; assay type: cell-based; details: Human serotonin transporter uptake; read-out: hSERT IC50
Chain of human serotonin transporter (P31645 whole entry): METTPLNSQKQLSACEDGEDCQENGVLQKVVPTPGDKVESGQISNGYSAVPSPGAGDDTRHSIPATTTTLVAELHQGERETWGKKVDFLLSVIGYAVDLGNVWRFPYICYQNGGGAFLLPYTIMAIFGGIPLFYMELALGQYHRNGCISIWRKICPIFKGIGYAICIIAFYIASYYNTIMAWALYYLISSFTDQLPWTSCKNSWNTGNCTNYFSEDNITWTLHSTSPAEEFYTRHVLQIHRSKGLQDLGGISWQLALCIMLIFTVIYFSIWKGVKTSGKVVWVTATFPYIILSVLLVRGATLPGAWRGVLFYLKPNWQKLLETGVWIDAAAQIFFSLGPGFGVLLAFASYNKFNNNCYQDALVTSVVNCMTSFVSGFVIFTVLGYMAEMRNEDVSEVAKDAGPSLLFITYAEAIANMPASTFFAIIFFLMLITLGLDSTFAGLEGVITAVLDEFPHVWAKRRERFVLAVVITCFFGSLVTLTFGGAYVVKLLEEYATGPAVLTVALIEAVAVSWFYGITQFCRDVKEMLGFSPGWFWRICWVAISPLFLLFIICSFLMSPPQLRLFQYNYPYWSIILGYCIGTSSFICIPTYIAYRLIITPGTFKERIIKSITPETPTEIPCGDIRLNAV

[2] = biological target: human dopamine transporter (Homo sapiens (Human), UniProt Q01959); assay: Dopamine functional uptake assay, recombinant human transporter in CHO-K1 or HEK293 cells; assay type: cell-based; details: read-out: hDAT IC50
Chain of human dopamine transporter (Q01959 whole entry): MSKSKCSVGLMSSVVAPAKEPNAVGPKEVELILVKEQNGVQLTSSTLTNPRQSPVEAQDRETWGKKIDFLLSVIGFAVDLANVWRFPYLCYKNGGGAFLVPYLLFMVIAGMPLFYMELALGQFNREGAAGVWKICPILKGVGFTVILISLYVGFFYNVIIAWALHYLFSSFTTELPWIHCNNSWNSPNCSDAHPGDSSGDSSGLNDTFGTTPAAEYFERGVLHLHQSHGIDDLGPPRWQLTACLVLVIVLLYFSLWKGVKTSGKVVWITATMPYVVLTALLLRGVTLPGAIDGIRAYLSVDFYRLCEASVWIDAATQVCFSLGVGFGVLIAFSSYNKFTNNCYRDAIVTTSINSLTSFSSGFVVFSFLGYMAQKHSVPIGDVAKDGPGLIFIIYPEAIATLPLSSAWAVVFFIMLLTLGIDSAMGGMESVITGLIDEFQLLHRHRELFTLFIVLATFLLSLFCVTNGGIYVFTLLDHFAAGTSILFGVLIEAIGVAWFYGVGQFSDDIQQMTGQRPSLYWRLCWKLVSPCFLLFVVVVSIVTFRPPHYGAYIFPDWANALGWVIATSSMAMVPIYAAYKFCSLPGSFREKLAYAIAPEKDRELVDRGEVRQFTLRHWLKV

[3] = biological target: 5-HT Transporter (SERT) sites in mouse brain (Mus musculus (Mouse), UniProt Q60857); assay: Ex vivo [3H] citalopram binding to SERT sites in mouse brain after oral dosing; details: mice, 60 min after treatment; for receptor occupancy at 1 mg/kg / receptor occupancy at 3 mg/kg / receptor occupancy at 10 mg/kg / receptor occupancy at 30 mg/kg: mouse
[4] = biological target: DA Transporter (DAT) sites in mouse brain (Mus musculus (Mouse), UniProt Q61327); assay: Ex vivo [3H] WIN 35428 binding to DAT sites in mouse brain after oral dosing; details: mice, 60 min after treatment; for receptor occupancy at 1 mg/kg / receptor occupancy at 3 mg/kg / receptor occupancy at 10 mg/kg / receptor occupancy at 30 mg/kg: mouse
mice = assay: Mouse tail suspension test; assay type: in vivo
Rats = assay: Rat forced swim test; assay type: in vivo
[5] = biological target: T1, Norepinephrine Transporter (NET) sites in mouse brain (Mus musculus (Mouse), UniProt O55192); details: mice, 60 min after treatment
[6] = biological target: T1, Norepinephrine Transporter (NET) sites in mouse brain; assay: in vivo; details: po, read-out: NET % Transporter Occupancy

CN(C)C[C@]1(c2ccc(Cl)c(Cl)c2)CCCC[C@H]1O (relative stereo) [153 E2, trans-2-(3,4-dichlorophenyl)-2-((dimethylamino)methyl)cyclohexanol]
IC50 [1]: 64 nM | IC50 [2]: 25 nM | SERT Mean Specific Binding ± S.E.M. ([3]; 1 mg/kg PO): 3271 ± 199 dpm | SERT Mean Specific Binding ± S.E.M. ([3]; 3 mg/kg PO): 2968 ± 100 dpm | SERT Mean Specific Binding ± S.E.M. ([3]; 10 mg/kg PO): 2327 ± 150 dpm | SERT Mean Specific Binding ± S.E.M. ([3]; 30 mg/kg PO): 1359 ± 89 dpm | receptor occupancy at 1 mg/kg ([3]; 1 mg/kg PO): -1% | receptor occupancy at 3 mg/kg ([3]; 3 mg/kg PO): 8% | receptor occupancy at 10 mg/kg ([3]; 10 mg/kg PO): 28% | receptor occupancy at 30 mg/kg ([3]; 30 mg/kg PO): 58% | DAT Mean Specific Binding ± S.E.M. ([4]; 1 mg/kg PO): 22774 ± 916 dpm | DAT Mean Specific Binding ± S.E.M. ([4]; 3 mg/kg PO): 24159 ± 1313 dpm | DAT Mean Specific Binding ± S.E.M. ([4]; 30 mg/kg PO): 16194 ± 1293 dpm | receptor occupancy at 1 mg/kg ([4]; 1 mg/kg PO): -10% | receptor occupancy at 3 mg/kg ([4]; 3 mg/kg PO): -16% | receptor occupancy at 10 mg/kg ([4]; 10 mg/kg PO): -6% | receptor occupancy at 30 mg/kg ([4]; 30 mg/kg PO): 22% | Mouse Tail Suspension Mean Immobility Time ± S.E.M. (mice; 10 mg/kg PO): 170.2 ± 6.3 | Mouse Tail Suspension Mean Immobility Time ± S.E.M. (mice; 30 mg/kg PO): 154.5 ± 8.4 | Rat Forced Swim Climbing (Means ± S.E.M.) (Rats; 3 mg/kg PO): 8.8 ± 1.5 | Rat Forced Swim Immobility (Means ± S.E.M.) (Rats; 3 mg/kg PO): 49.9 ± 1.7 | Rat Forced Swim Swimming (Means ± S.E.M.) (Rats; 3 mg/kg PO): 1.9 ± 0.8 | Rat Forced Swim Climbing (Means ± S.E.M.) (Rats; 10 mg/kg PO): 11.7 ± 1.8 | Rat Forced Swim Immobility (Means ± S.E.M.) (Rats; 10 mg/kg PO): 44.0 ± 2.1 | Rat Forced Swim Swimming (Means ± S.E.M.) (Rats; 10 mg/kg PO): 4.3 ± 1.1 | Rat Forced Swim Climbing (Means ± S.E.M.) (Rats; 30 mg/kg PO): 22.2 ± 5.2 | Rat Forced Swim Immobility (Means ± S.E.M.) (Rats; 30 mg/kg PO): 31.3 ± 6.7 | Rat Forced Swim Swimming (Means ± S.E.M.) (Rats; 30 mg/kg PO): 4.6 ± 1.3 | NET Mean Specific Binding ± S.E.M. ([5]; 1 mg/kg PO): 1804 ± 79 dpm | NET Mean Specific Binding ± S.E.M. ([5]; 3 mg/kg PO): 1726 ± 44 dpm | NET Mean Specific Binding ± S.E.M. ([5]; 10 mg/kg PO): 1734 ± 62 dpm | NET Mean Specific Binding ± S.E.M. ([5]; 30 mg/kg PO): 1140 ± 53 dpm | receptor occupancy at 1 mg/kg [6]: 6% | receptor occupancy at 3 mg/kg [6]: 10% | receptor occupancy at 10 mg/kg [6]: 9% | receptor occupancy at 30 mg/kg [6]: 40%

CC(N(C)C)C1(c2ccc3ccccc3c2)CCCCC1 (single isomer, unassigned) [56 E1, N,N-dimethyl-1-(1-(naphthalen-2-yl)cyclohexyl)ethanamine]
SERT Mean Specific Binding ± S.E.M. ([3]; 1 mg/kg PO): 2625 ± 138 dpm | SERT Mean Specific Binding ± S.E.M. ([3]; 3 mg/kg PO): 1346 ± 109 dpm | SERT Mean Specific Binding ± S.E.M. ([3]; 10 mg/kg PO): 278 ± 42 dpm | SERT Mean Specific Binding ± S.E.M. ([3]; 30 mg/kg PO): 151 ± 60 dpm | receptor occupancy at 1 mg/kg ([3]; 1 mg/kg PO): 19% | receptor occupancy at 3 mg/kg ([3]; 3 mg/kg PO): 58% | receptor occupancy at 10 mg/kg ([3]; 10 mg/kg PO): 91% | receptor occupancy at 30 mg/kg ([3]; 30 mg/kg PO): 95% | DAT Mean Specific Binding ± S.E.M. ([4]; 1 mg/kg PO): 41561 ± 1611 dpm | DAT Mean Specific Binding ± S.E.M. ([4]; 3 mg/kg PO): 42127 ± 2130 dpm | DAT Mean Specific Binding ± S.E.M. ([4]; 10 mg/kg PO): 33478 ± 1779 dpm | DAT Mean Specific Binding ± S.E.M. ([4]; 30 mg/kg PO): 14637 ± 1567 dpm | receptor occupancy at 1 mg/kg ([4]; 1 mg/kg PO): 5% | receptor occupancy at 3 mg/kg ([4]; 3 mg/kg PO): 4% | receptor occupancy at 10 mg/kg ([4]; 10 mg/kg PO): 23% | receptor occupancy at 30 mg/kg ([4]; 30 mg/kg PO): 67% | Mouse Tail Suspension Mean Immobility Time ± S.E.M. (mice; 10 mg/kg PO): 174.8 ± 6.1 | Mouse Tail Suspension Mean Immobility Time ± S.E.M. (mice; 30 mg/kg PO): 141.9 ± 7.4 | Rat Forced Swim Climbing (Means ± S.E.M.) (Rats; 3 mg/kg PO): 7.1 ± 1.6 | Rat Forced Swim Immobility (Means ± S.E.M.) (Rats; 3 mg/kg PO): 52.2 ± 1.6 | Rat Forced Swim Swimming (Means ± S.E.M.) (Rats; 3 mg/kg PO): 0.3 ± 0.2 | Rat Forced Swim Climbing (Means ± S.E.M.) (Rats; 10 mg/kg PO): 8.6 ± 0.9 | Rat Forced Swim Immobility (Means ± S.E.M.) (Rats; 10 mg/kg PO): 50.7 ± 1.0 | Rat Forced Swim Swimming (Means ± S.E.M.) (Rats; 10 mg/kg PO): 0.8 ± 0.3 | Rat Forced Swim Climbing (Means ± S.E.M.) (Rats; 30 mg/kg PO): 17.9 ± 2.4 | Rat Forced Swim Immobility (Means ± S.E.M.) (Rats; 30 mg/kg PO): 40.4 ± 2.7 | Rat Forced Swim Swimming (Means ± S.E.M.) (Rats; 30 mg/kg PO): 1.0 ± 0.4 | NET Mean Specific Binding ± S.E.M. ([5]; 1 mg/kg PO): 616 ± 50 dpm | NET Mean Specific Binding ± S.E.M. ([5]; 3 mg/kg PO): 368 ± 17 dpm | NET Mean Specific Binding ± S.E.M. ([5]; 10 mg/kg PO): 106 ± 20 dpm | NET Mean Specific Binding ± S.E.M. ([5]; 30 mg/kg PO): 19 ± 2 dpm | receptor occupancy at 1 mg/kg [6]: 20% | receptor occupancy at 3 mg/kg [6]: 52% | receptor occupancy at 10 mg/kg [6]: 86% | receptor occupancy at 30 mg/kg [6]: 98%

CNCC1(c2ccc3ccccc3c2)CCCCC1 [Compound 93, N-methyl-1-(1-(naphthalen-2-yl)cyclohexyl)methanamine]
Mouse Tail Suspension Mean Immobility Time ± S.E.M. (mice; 30 mg/kg PO): 162.0 ± 8.1 | Rat Forced Swim Climbing (Means ± S.E.M.) (Rats; 3 mg/kg PO): 9.0 ± 1.3 | Rat Forced Swim Immobility (Means ± S.E.M.) (Rats; 3 mg/kg PO): 44.5 ± 2.5 | Rat Forced Swim Swimming (Means ± S.E.M.) (Rats; 3 mg/kg PO): 6.5 ± 1.6 | Rat Forced Swim Climbing (Means ± S.E.M.) (Rats; 10 mg/kg PO): 12.8 ± 2.2 | Rat Forced Swim Immobility (Means ± S.E.M.) (Rats; 10 mg/kg PO): 41.4 ± 2.8 | Rat Forced Swim Swimming (Means ± S.E.M.) (Rats; 10 mg/kg PO): 6.9 ± 1.3 | Rat Forced Swim Climbing (Means ± S.E.M.) (Rats; 30 mg/kg PO): 22.2 ± 3.5 | Rat Forced Swim Immobility (Means ± S.E.M.) (Rats; 30 mg/kg PO): 25.8 ± 5.4 | Rat Forced Swim Swimming (Means ± S.E.M.) (Rats; 30 mg/kg PO): 12.0 ± 2.1

CN[C@H](C)C1(c2ccc(Cl)c(Cl)c2)CCCCC1 (stereo in doubt) [48 E1, 1-(1-(3,4-dichlorophenyl)cyclohexyl)-N-methylethanamine hydrochloride]
receptor occupancy at 1 mg/kg ([3]; 1 mg/kg PO): -1% | DAT Mean Specific Binding ± S.E.M. ([4]; 1 mg/kg PO): 20656 ± 1531 dpm | DAT Mean Specific Binding ± S.E.M. ([4]; 3 mg/kg PO): 18039 ± 1265 dpm | DAT Mean Specific Binding ± S.E.M. ([4]; 10 mg/kg PO): 9792 ± 977 dpm | DAT Mean Specific Binding ± S.E.M. ([4]; 30 mg/kg PO): 3173 ± 541 dpm | receptor occupancy at 1 mg/kg ([4]; 1 mg/kg PO): -1% | receptor occupancy at 3 mg/kg ([4]; 3 mg/kg PO): 11% | receptor occupancy at 10 mg/kg ([4]; 10 mg/kg PO): 52% | receptor occupancy at 30 mg/kg ([4]; 30 mg/kg PO): 84% | Mouse Tail Suspension Mean Immobility Time ± S.E.M. (mice; 10 mg/kg PO): 174.1 ± 5.8 | Mouse Tail Suspension Mean Immobility Time ± S.E.M. (mice; 30 mg/kg PO): 134.5 ± 9.6 | Rat Forced Swim Climbing (Means ± S.E.M.) (Rats; 3 mg/kg PO): 7.1 ± 0.6 | Rat Forced Swim Immobility (Means ± S.E.M.) (Rats; 3 mg/kg PO): 49.6 ± 1.5 | Rat Forced Swim Swimming (Means ± S.E.M.) (Rats; 3 mg/kg PO): 3.7 ± 1.0 | Rat Forced Swim Climbing (Means ± S.E.M.) (Rats; 10 mg/kg PO): 17.9 ± 2.5 | Rat Forced Swim Immobility (Means ± S.E.M.) (Rats; 10 mg/kg PO): 35.6 ± 3.5 | Rat Forced Swim Swimming (Means ± S.E.M.) (Rats; 10 mg/kg PO): 6.5 ± 1.6 | Rat Forced Swim Climbing (Means ± S.E.M.) (Rats; 30 mg/kg PO): 20.6 ± 2.9 | Rat Forced Swim Immobility (Means ± S.E.M.) (Rats; 30 mg/kg PO): 26.9 ± 4.4 | Rat Forced Swim Swimming (Means ± S.E.M.) (Rats; 30 mg/kg PO): 9.7 ± 1.7 | NET Mean Specific Binding ± S.E.M. ([5]; 1 mg/kg PO): 2111 ± 119 dpm | NET Mean Specific Binding ± S.E.M. ([5]; 3 mg/kg PO): 1911 ± 144 dpm | NET Mean Specific Binding ± S.E.M. ([5]; 10 mg/kg PO): 954 ± 115 dpm | NET Mean Specific Binding ± S.E.M. ([5]; 30 mg/kg PO): 346 ± 55 dpm | receptor occupancy at 1 mg/kg [6]: 12% | receptor occupancy at 3 mg/kg [6]: 21% | receptor occupancy at 10 mg/kg [6]: 60% | receptor occupancy at 30 mg/kg [6]: 86%
